According to BindingDB's records for doi:10.1080/14756360801915476 (Instituto De Parastiologia Y Biomedicina "Lopez-Neyra, 2009):

Experiments:
Experiment in all cases: Inhibition Assay
Conditions in all cases: pH 8; 25 °C
[1] = target: T1, Deoxyuridine 5'-triphosphate nucleotidohydrolase, mitochondrial (Homo sapiens, UniProt P33316)
T1 sequence (P33316 whole entry): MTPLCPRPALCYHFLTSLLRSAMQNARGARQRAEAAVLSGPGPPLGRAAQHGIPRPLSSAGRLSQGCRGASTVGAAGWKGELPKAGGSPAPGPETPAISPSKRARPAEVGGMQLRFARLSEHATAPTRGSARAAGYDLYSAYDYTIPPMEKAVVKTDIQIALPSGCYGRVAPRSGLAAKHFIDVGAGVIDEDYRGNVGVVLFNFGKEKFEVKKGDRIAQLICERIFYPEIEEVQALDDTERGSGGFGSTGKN
Description: (§1) Nucleotide hydrolysis was monitored by mixing enzyme and substrate with a rapid kinetic accessory (Hi-Tech Scientific) attached to a spectrophotometer (Cary 50). Protons, released through the hydrolysis of nucleotides, were neutralized with […] and monitored spectrophotometrically at the absorbance peak of the basic form of the indicator.

[2] = target: T2, Deoxyuridine 5'-triphosphate nucleotidohydrolase (Plasmodium falciparum (isolate 3D7), UniProt Q8II92)
T2 sequence (Q8II92 whole entry): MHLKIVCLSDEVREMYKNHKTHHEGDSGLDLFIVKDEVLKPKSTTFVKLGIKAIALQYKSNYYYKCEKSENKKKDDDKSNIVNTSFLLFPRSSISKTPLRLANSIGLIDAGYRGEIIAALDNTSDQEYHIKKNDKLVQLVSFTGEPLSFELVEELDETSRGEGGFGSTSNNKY
Description: as §1

dCTP deaminase = target: T3, dCTP deaminase (Campylobacter jejuni subsp. jejuni serotype O:2 (strain ATCC 700819 / NCTC 11168), UniProt Q9PN07)
T3 sequence (Q9PN07 whole entry): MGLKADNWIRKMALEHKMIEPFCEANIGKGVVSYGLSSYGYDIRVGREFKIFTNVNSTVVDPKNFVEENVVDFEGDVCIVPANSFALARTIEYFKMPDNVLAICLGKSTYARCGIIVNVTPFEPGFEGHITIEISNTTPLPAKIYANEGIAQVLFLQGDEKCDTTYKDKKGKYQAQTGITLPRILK
Description: as §1

SMILES: CC(C)(C)[Si](OCC1OC(n2ccc(=O)[nH]c2=O)CC1O)(c1ccccc1)c1ccccc1 (stereo not drawn)
- Ki [1]: 805 µM
- Ki [2]: 4.2 µM

SMILES: O=c1ccn(C2CC(O)C(CO[Si](c3ccccc3)(c3ccccc3)c3ccccc3)O2)c(=O)[nH]1 (stereo not drawn)
- Ki [1]: 908 µM
- Ki [2]: 2.8 µM

SMILES: CC(C)[Si](OCC1OC(n2ccc(=O)[nH]c2=O)CC1O)(C(C)C)C(C)C (stereo not drawn)
- Ki [1]: 1000 µM
- Ki [2]: 227 µM

SMILES: O=c1ccn(C2CC(O)C(CNCc3ccccc3)O2)c(=O)[nH]1 (stereo not drawn)
- Ki [1]: 1000 µM

SMILES: O=c1ccn(C2CC(O)C(COP(=O)(Oc3ccccc3)Oc3ccccc3)O2)c(=O)[nH]1 (stereo not drawn) [dUTPase inhibitor, 1]
- Ki (dCTP deaminase): 1000 µM
- Ki [1]: 135 µM
- Ki [2]: 238 µM

SMILES: O=c1ccn(C2C=CC(COC(c3ccccc3)(c3ccccc3)c3ccccc3)O2)c(=O)[nH]1 (stereo not drawn) [dUTPase inhibitor, 2]
- Ki (dCTP deaminase): 1000 µM

SMILES: O=C(OCC1C=CC(n2ccc(=O)[nH]c2=O)O1)C12CC3CC(CC(C3)C1)C2 (stereo not drawn) [dUTPase inhibitor, 3]
- Ki (dCTP deaminase): 547 µM
- Ki [1]: 298 µM
- Ki [2]: 57.7 µM

SMILES: CC(C)(C)[Si](OCC1C=CC(n2ccc(=O)[nH]c2=O)O1)(c1ccccc1)c1ccccc1 (stereo not drawn) [dUTPase inhibitor, 5]
- Ki [1]: > 1000 µM
- Ki [2]: 1.16 µM

SMILES: CC(C)(C)[Si](C)(C)OCC1OC(n2ccc(=O)[nH]c2=O)CC1F (stereo not drawn) [dUTPase inhibitor, 6]
- Ki [1]: > 1000 µM
- Ki [2]: 6.28 µM
